Measurements as given in US9365562B2, “1,3 substituted azetidine PDE10 inhibitors” (Merck Sharp & Dohme Corp., priority 2011, dated 2016).

Target: human PDE10A2 (Homo sapiens (Human), UniProt Q9Y233)
Experiment: PDE10 fluorescence polarization (IMAP FP) inhibition assay
Type: biochemical
Conditions: apparent inhibition constant, FAM-labeled cAMP substrate 50 nM, room temperature
Protocol: The activity of the compounds in accordance with the present invention as PDE10 inhibitors may be readily determined without undue experimentation using a fluorescence polarization (FP) methodology that is well known in the art (Huang, W., et al., J. Biomol Screen, 2002, 7: 215).
In a typical experiment the PDE10 inhibitory activity of the compounds of the present invention was determined in accordance with the following experimental method. PDE10A2 was amplified from human fetal brain cDNA (Clontech, Mountain View, Calif.) using a forward primer corresponding to nucleotides 56-77 of human PDE10A2 (Accession No. AF127480, Genbank Identifier 4894716), containing a Kozak consensus sequence, and a reverse primer corresponding to nucleotides 2406-2413 of human PDE10A2 (Accession No. AF127480, Genbank Identifier 4894716). Amplification with Easy-A polymerase (Stratagene, La Jolla, Calif.) was 95° C. for 2 minutes followed by thirty three cycles of 95° C. for 40 seconds, 55° C. for 30 seconds, and 72° C. for 2 minutes 48 seconds. Final extension was 72° C. for 7 minutes. The PCR product was TA cloned into pcDNA3.2-TOPO (Invitrogen, Carlsbad, Calif.) according to standard protocol. AD293 cells with 70-80% confluency were transiently transfected with human PDE10A2/pcDNA3.2-TOPO using Lipofectamine 2000 according to manufacturer specifications (Invitrogen, Carlsbad, Calif.). Cells were harvested 48 hours post-transfection and lysed by sonication (setting 3, 10×5 sec pulses) in a buffer containing 20 mM HEPES, 1 mM EDTA and protease inhibitor cocktail (Roche). Lysate was collected by centrifugation at 75,000×g for 20 minutes. Supernatant containing the cytoplasmic fraction was used for evaluation of PDE10A2 activity. The fluorescence polarization assay for cyclic nucleotide phosphodiesterases was performed using an IMAP® FP kit supplied by Molecular Devices, Sunnyvale, Calif. (product # R8139). IMAP® technology has been applied previously to phosphodiesterase assays (Huang, W., et al., J. Biomol Screen, 2002, 7: 215). Assays were performed at room temperature in 384-well microtiter plates with an incubation volume of 20.2 μL. Solutions of test compounds were prepared in DMSO and serially diluted with DMSO to yield 8 μL of each of 10 solutions differing by 3-fold in concentration, at 32 serial dilutions per plate. 100% inhibition is determined using a known PDE10 inhibitor, which can be any compound that is present at 5,000 times its Ki value in the assay described as follows, such as papaverine (see Siuciak, et al. Neuropharmacology (2006) 51:386-396; Becker, et al. Behav Brain Res (2008) 186(2):155-60; Threlfell, et al., J Pharmacol Exp Ther (2009) 328(3):785-795), 2-{4-[pyridin-4-yl-1-(2,2,2-trifluoroethyl)-1H-pyrazol-3-yl]phenoxymethyl}quinoline succinic acid or 2-[4-(1-methyl-4-pyridin-4-yl-1H-pyrazol-3-yl)-phenoxymethyl]quinoline succinic acid (see Schmidt, et al. J Pharmacol Exp Ther (2008) 325:681-690; Threlfell, et al., J Pharmacol Exp Ther (2009) 328(3): 785-795). 0% of inhibition is determined by using DMSO (1% final concentrations). A Labcyte Echo 555 (Labcyte, Sunnyvale, Calif.) is used to dispense […] from each well of the titration plate to the 384 well assay plate. A solution of enzyme (1/7000 dilution from aliquots; sufficient to produce 20% substrate conversion) and a separate solution of FAM-labeled cAMP PDE from Molecular Devices (product # R7506), at a final concentration of 50 nM are made in the assay buffer (10 mM Tris HCl, pH 7.2, 10 mM MgCl2, 0.05% NaN3 0.01% Tween-20, and 1 mM DTT). The enzyme is added to the assay plates by the addition of 10 μL of enzyme solution to each well, shaken to mix and incubated at room temperature for 60 minutes. The substrate is then added to the assay plates by the addition of 10 μL of substrate solution to each well, shaken to mix, and incubated at room temperature for 60 minutes. […]

Chain of human PDE10A2 (Q9Y233 267-1055): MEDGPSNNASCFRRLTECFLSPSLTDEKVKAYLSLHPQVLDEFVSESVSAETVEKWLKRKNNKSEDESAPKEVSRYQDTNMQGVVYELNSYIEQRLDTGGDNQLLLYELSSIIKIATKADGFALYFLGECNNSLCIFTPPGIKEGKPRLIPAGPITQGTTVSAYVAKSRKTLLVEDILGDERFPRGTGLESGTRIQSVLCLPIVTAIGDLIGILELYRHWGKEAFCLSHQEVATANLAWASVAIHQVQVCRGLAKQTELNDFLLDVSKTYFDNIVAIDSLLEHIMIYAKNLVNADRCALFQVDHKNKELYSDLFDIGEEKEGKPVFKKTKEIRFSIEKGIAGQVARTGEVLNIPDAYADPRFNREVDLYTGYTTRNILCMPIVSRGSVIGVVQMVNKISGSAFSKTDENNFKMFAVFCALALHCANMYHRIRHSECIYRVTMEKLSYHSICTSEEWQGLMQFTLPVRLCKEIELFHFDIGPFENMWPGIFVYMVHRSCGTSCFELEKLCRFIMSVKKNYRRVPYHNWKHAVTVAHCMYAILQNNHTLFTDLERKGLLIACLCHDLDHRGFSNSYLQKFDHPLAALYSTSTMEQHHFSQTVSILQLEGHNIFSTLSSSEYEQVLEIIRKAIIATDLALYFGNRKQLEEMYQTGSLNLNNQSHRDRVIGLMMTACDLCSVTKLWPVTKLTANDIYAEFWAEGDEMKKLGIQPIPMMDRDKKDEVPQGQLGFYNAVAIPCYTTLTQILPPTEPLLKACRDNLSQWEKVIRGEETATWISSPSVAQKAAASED

Compound | Ki [nM]
Cc1nc(N2CC(c3nc4ccccc4n3C)C2)cc(-n2nncc2C)n1 [Example 27, 1-methyl-2-(1-(2-methyl-6-(5-methyl-1H-1,2,3-triazol-1-yl)pyrimidin-4-yl)azetidin-3-yl)-1H-benzo[d]imidazole] | 8.5
Cc1cnn(-c2cc(N3CC(c4nc5ccccc5n4C)C3)nc(C)n2)n1 [Example 28, 1-methyl-2-(1-(2-methyl-6-(4-methyl-2H-1,2,3-triazol-2-yl)pyrimidin-4-yl)azetidin-3-yl)-1H-benzo[d]imidazole] | 1.7
Cc1cn(-c2cc(N3CC(c4nc5ccccc5n4C)C3)nc(C)n2)nn1 [Example 29, 1-methyl-2-(1-(2-methyl-6-(4-methyl-1H-1,2,3-triazol-1-yl)pyrimidin-4-yl)azetidin-3-yl)-1H-benzo[d]imidazole] | 3.1
Cc1cn(-c2cc(N3CC(c4nc5ccccc5n4C)C3)nc(C(F)(F)F)n2)nn1 [Example 30, 1-methyl-2-(1-(6-(4-methyl-1H-1,2,3-triazol-1-yl)-2-(trifluoromethyl)pyrimidin-4-yl)azetidin-3-yl)-1H-benzo[d]imidazole] | 5.6
Cc1cnn(-c2cc(N3CC(c4nc5ccccc5n4C)C3)nc(C(F)(F)F)n2)n1 [Example 31, 1-methyl-2-(1-(6-(4-methyl-2H-1,2,3-triazol-2-yl)-2-(trifluoromethyl)pyrimidin-4-yl)azetidin-3-yl)-1H-benzo[d]imidazole] | 1.2
Cc1cn(-c2cc(N3CC(c4nc5ccccc5n4C)C3)nc(C3CC3)n2)nn1 [Example 32, 2-(1-(2-cyclopropyl-6-(4-methyl-1H-1,2,3-triazol-1-yl)pyrimidin-4-yl)azetidin-3-yl)-1-methyl-1H-benzo[d]imidazole] | 1.1
Cc1cnn(-c2cc(N3CC(c4nc5ccccc5n4C)C3)nc(C3CC3)n2)n1 [Example 33, 2-(1-(2-cyclopropyl-6-(4-methyl-2H-1,2,3-triazol-2-yl)pyrimidin-4-yl)azetidin-3-yl)-1-methyl-1H-benzo[d]imidazole] | 0.54
COc1nc(N2CC(c3nc4ccccc4n3C)C2)cc(-n2ncc(C)n2)n1 [Example 34, 2-{1-[2-methoxy-6-(4-methyl-2H-1,2,3-triazol-2-yl)pyrimidin-4-yl]azetidin-3-yl}-1-methyl-1H-benzimidazole] | 1.4
CCc1nc(C)nn1-c1cc(N2CC(c3nc4ccccc4n3C)C2)nc(C)n1 [Example 35, 2-(1-(6-(5-ethyl-3-methyl-1H-1,2,4-triazol-1-yl)-2-methylpyrimidin-4-yl)azetidin-3-yl)-1-methyl-1H-benzo[d]imidazole] | 0.81
Cc1nc(N2CC(c3nc4ccccc4n3C)C2)cc(-n2nc(C)nc2C2CC2)n1 [Example 36, 2-(1-(6-(5-cyclopropyl-3-methyl-1H-1,2,4-triazol-1-yl)-2-methylpyrimidin-4-yl)azetidin-3-yl)-1-methyl-1H-benzo[d]imidazole] | 4.5
CCCc1nc(C)nn1-c1cc(N2CC(c3nc4ccccc4n3C)C2)nc(C)n1 [Example 38, 1-methyl-2-(1-(2-methyl-6-(3-methyl-5-propyl-1H-1,2,4-triazol-1-yl)pyrimidin-4-yl)azetidin-3-yl)-1H-benzo[d]imidazole] | 0.41
Cc1nc(N2CC(c3nc4ccccc4n3C)C2)cc(-n2nc(C)nc2C(C)C)n1 [Example 39, 2-(1-(6-(5-isopropyl-3-methyl-1H-1,2,4-triazol-1-yl)-2-methylpyrimidin-4-yl)azetidin-3-yl)-1-methyl-1H-benzo[d]imidazole] | 3.1
Cc1nc(N2CC(c3nc4ccccc4n3C)C2)cc(-n2nc(C)nc2C[C@H](C)O)n1 [Example 40, (S)-1-(3-methyl-1-(2-methyl-6-(3-(1-methyl-1H-benzo[d]imidazol-2-yl)azetidin-1-yl)pyrimidin-4-yl)-1H-1,2,4-triazol-5-yl)propan-2-ol] | 2
Cc1nc(N2CC(c3nc4ccccc4n3C)C2)cc(-n2nc(C)nc2C[C@@H](C)O)n1 [Example 41, (R)-1-(3-methyl-1-(2-methyl-6-(3-(1-methyl-1H-benzo[d]imidazol-2-yl)azetidin-1-yl)pyrimidin-4-yl)-1H-1,2,4-triazol-5-yl)propan-2-ol] | 1
COCCc1nc(C)nn1-c1cc(N2CC(c3nc4ccccc4n3C)C2)nc(C)n1 [Example 42, 2-(1-(6-(5-(2-methoxyethyl)-3-methyl-1H-1,2,4-triazol-1-yl)-2-methylpyrimidin-4-yl)azetidin-3-yl)-1-methyl-1H-benzo[d]imidazole] | 1.9
COC(=O)CCc1nc(C)nn1-c1cc(N2CC(c3nc4ccccc4n3C)C2)nc(C)n1 [Example 43, methyl 3-(3-methyl-1-(2-methyl-6-(3-(1-methyl-1H-benzo[d]imidazol-2-yl)azetidin-1-yl)pyrimidin-4-yl)-1H-1,2,4-triazol-5-yl)propanoate] | 0.49
CCOC(=O)Cc1nc(C)nn1-c1cc(N2CC(c3nc4ccccc4n3C)C2)nc(C)n1 [Example 44, ethyl 2-(3-methyl-1-(2-methyl-6-(3-(1-methyl-1 benzo[d]imidazol-2-yl)azetidin-1-yl)pyrimidin-4-yl)-1H-1,2,4-triazol-5-yl)acetate] | 2.6
Cc1nc(N2CC(c3nc4ccccc4n3C)C2)cc(-n2nc(C)nc2C2CCCCC2)n1 [Example 45, 2-(1-(6-(5-cyclohexyl-3-methyl-1H-1,2,4-triazol-1-yl)-2-methylpyrimidin-4-yl)azetidin-3-yl)-1-methyl-1H-benzo[d]imidazole] | 2
Cc1nc(N2CC(c3nc4ccccc4n3C)C2)cc(-n2nc(C)nc2COc2ccccc2)n1 [Example 46, 1-methyl-2-(1-(2-methyl-6-(3-methyl-5-(phenoxymethyl)-1H-1,2,4-triazol-1-yl)pyrimidin-4-yl)azetidin-3-yl)-1H-benzo[d]imidazole] | 1.2
Cc1nc(N2CC(c3nc4ccccc4n3C)C2)cc(-n2nc(C)nc2C2CC(=O)N(C)C2)n1 (stereo not drawn) [Example 47, 1-methyl-4-(3-methyl-1-(2-methyl-6-(3-(1-methyl-1H-benzo[d]imidazol-2-yl)azetidin-1-yl)pyrimidin-4-yl)-1H-1,2,4-triazol-5-yl)pyrrolidin-2-one] | 3.9
Cc1nc(N2CC(c3nc4ccccc4n3C)C2)cc(-n2nc(C)nc2CN2CCCC2=O)n1 [Example 48, 1-((3-methyl-1-(2-methyl-6-(3-(1-methyl-1H-benzo[d]imidazol-2-yl)azetidin-1-yl)pyrimidin-4-yl)-1H-1,2,4-triazol-5-yl)methyl)pyrrolidin-2-one] | 0.26
Cc1nc(N2CC(c3nc4ccccc4n3C)C2)cc(-n2nc(C)nc2-c2ccccc2)n1 [Example 49, 1-methyl-2-(1-(2-methyl-6-(3-methyl-5-phenyl-1H-1,2,4-triazol-1-yl)pyrimidin-4-yl)azetidin-3-yl)-1H-benzo[d]imidazole] | 6.8
Cc1nc(N2CC(c3nc4ccccc4n3C)C2)cc(-n2nc(C)nc2-c2ccccc2Cl)n1 [Example 50, 2-(1-(6-(5-(2-chlorophenyl)-3-methyl-1H-1,2,4-triazol-1-yl)-2-methylpyrimidin-4-yl)azetidin-3-yl)-1-methyl-1H-benzo[d]imidazole] | 0.35
Cc1nc(N2CC(c3nc4ccccc4n3C)C2)cc(-n2nc(C)nc2-c2ccccc2F)n1 [Example 51, 2-(1-(6-(5-(2-fluorophenyl)-3-methyl-1H-1,2,4-triazol-1-yl)-2-methylpyrimidin-4-yl)azetidin-3-yl)-1-methyl-1H-benzo[d]imidazole] | 1.2
